Assay results published in patent US20040082623A1, “Fmoc-l-leucine and derivatives thereof as ppar-gamma agonists” (priority 2003, published 2004).

How the values were obtained:
PPARγ2 [1] = molecular target: T1, PPARγ2 (Homo sapiens, UniProt P37231); test: Transient transfection, PPARγ2 reporter in RK13 cells; type: cell-based; parameters: a construct containing the entire cDNA of the human PPARγ2 (hPPARγ2); expressed in transfected cells; host or cells: Hep G2, RK13 or CV1 cells; settings: RK13 cells, 10^−5 M added
T1 sequence (P37231 1-505): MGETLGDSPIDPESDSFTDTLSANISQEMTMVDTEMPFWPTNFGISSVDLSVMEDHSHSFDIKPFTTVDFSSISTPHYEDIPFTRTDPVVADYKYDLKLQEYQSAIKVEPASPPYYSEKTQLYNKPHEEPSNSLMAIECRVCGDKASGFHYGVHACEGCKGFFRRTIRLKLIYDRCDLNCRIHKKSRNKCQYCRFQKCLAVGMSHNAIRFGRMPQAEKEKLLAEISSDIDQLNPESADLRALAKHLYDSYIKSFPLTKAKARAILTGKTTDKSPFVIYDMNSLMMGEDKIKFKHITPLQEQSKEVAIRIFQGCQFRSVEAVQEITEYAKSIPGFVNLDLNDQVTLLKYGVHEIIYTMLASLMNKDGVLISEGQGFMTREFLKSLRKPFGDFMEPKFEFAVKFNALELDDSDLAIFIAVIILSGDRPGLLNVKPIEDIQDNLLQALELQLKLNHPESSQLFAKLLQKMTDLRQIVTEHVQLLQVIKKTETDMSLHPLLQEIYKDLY
Description: (§1) RK13 cells (A and D), CV1 cells (B) or Hep G2 cells (C) were co-transfected with an expression vector for PPARγ2 (0.1 μg/well), pGL3-(Jwt)3TKLuc reported construct (0.5 μg/well), and pCMV-βGal (0.5 μg/well), as a control of transfection efficiency (0.5 μg/well). They were then grown during 24 h in the presence or absence of indicated compound. Activation is expressed as relative luciferase activity/β ? galactosidase activity. Each point was performed in triplicate, and each figure i ? representative of four independent experiments.
(§2) The CV1, RK-13, and Hep G2 cell lines were obtained from ATCC (Rockville, Md.). Cells were maintained in Dulbecco's modified Eagle's minimal essential medium (DMEM) supplemented with 10% fetal calf serum (FCS), L-glutamine, and antibiotics. Transfections with chloramphenicol acetyltransferase (CAT) or luciferase (luc.) reporter constructs were carried out exactly as described previously (Schoonjans et al., 1996). The pGL3-(Jwt)3TKLuc and the pGL3-(Jwt)3TKCAT reporter constructs contain both three tandem repeats of the J site of the apolipoprotein A-II promoter cloned upstream of the herpes simplex virus thymidine kinase (TK) promoter and the luciferase or the CAT reporter genes respectively (Vu-Dac et al., 1995). The following expression vectors were used; pSG5-hPPARγ2, a construct containing the entire cDNA of the human PPARγ2 (hPPARγ2) (Fajas et al., 1997); pSG5-mPPARα (Isseman et al., 1993); and pCMV-βGal, as a control of transfection efficiency.

PPARγ2 [2] = molecular target: T1, PPARγ2; test: Transient transfection, PPARγ2 reporter (luciferase/β-galactosidase) in Hep G2 cells; type: cell-based; parameters: a construct containing the entire cDNA of the human PPARγ2 (hPPARγ2); expressed in transfected cells; host or cells: Hep G2; settings: HepG2 cells, pSG5-hPPARγ2, 24 h, F-L-leu at 10^−5 M
Description: Hep G2 cells were co-transfected with an expression vector for PPARγ2 (0.1 μg/well), pGL3-(Jwt)3TKLuc reporter construct (0.5 μg/well), and pCMV-βGal (0.5 μg/well), as a control of transfection efficiency (0.5 μg/well). The were then grown during 24 h in the presence or absence of indicated compound Activation is expressed as relative luciferase activity/β-galactosidase activity. Each point was performed in triplicate. This figure is representative of three independent experiments.
as §1, §2

db/db mice = settings: db/db
Description: Intraperitoneal glucose tolerance test (IPGTT) in C57BL/6j (A) or db/db (B) mice 10 to 12 weeks old (n=8).
All mice were maintained in a temperature-controlled (25° C.) facility with a strict 12 h ? light/dark cycle and were given free access to food (standard mice chow; DO4, UAR ? France) and water.
C57B1/6J and db/db mice (8 per group) were obtained through the Janvier laboratorie ? (Laval-Le Genest, France).

Structure (SMILES) | modification of PPARγ activity when added to a saturating concentration of rosiglitazone (PPARγ2 [1]) | PPARγ activation (relative luciferase activity/β-galactosidase activity) (PPARγ2 [2]) | PPARγ activation (relative luciferase activity/β-galactosidase activity) (PPARγ2 [2]; listed as FMOC substituted L-tyrosine derivative) | maximal glycemia in IPGTT (db/db mice; 10 mg/kg/day i.p., 7 days, DMSO control 500) [mg/dL] | body weight vs control mice (db/db mice; 10 mg/kg/day, 8 days) | fasting serum insulin levels (mean) (db/db mice; 7 days treatment, DMSO group 180) [μUI/mL]
O=C(N[C@@H](Cc1ccc(O)cc1)C(=O)O)OCC1c2ccccc2-c2ccccc21 [FMOC-L-tyrosine, reference compound] | No significant modification | devoid of | did not activate PPARγ | – | – | –
CC(C)C[C@@H](NC(=O)OCC1c2ccccc2-c2ccccc21)C(=O)O [FMOC-D-leucine, reference compound] | No significant modification | no significant PPARγ activation | – | – | – | –
CN(CCOc1ccc(CC2SC(=O)NC2=O)cc1)c1ccccn1 (centres unmarked) [rosiglitazone, reference compound] | – | – | – | 350 | tendency to increase body weight | 70
